Reference: patent US5449694A, “(-)-ritodrine, therapeutic compositions and use, and method of preparation” (priority 1992, dated 1995)
Like-named read-outs stand apart in the source and are kept apart here.

What was measured:
[1] = Acute toxicity test in mouse (i.v.); type: in vivo, male ICR mice; conditions: mouse, in vivo, iv
Procedure: (§1) Acute Toxicity Test in Mouse
(§2) (±)-Ritodrine hydrochloride, (+)-ritodrine hydrochloride or (-)-ritodrine hydrochloride was administered intravenously at a dose of 40-100 mg/kg to male ICR mice to examine their motality.

[2] = test system: mice; assay: Acute toxicity test in mouse (i.v.); type: in vivo, male ICR mice
Procedure: as §1, §2

[3] = test system: isolated rat myometrium; assay: Effect on an isolated rat myometrium preparation (oxytocin-induced contraction); parameters: species or system female virgin Wistar rat; conditions: for concentration dependence of relaxation activity: 10^-7 -10^-4 M; for minimal effective concentration: read-out: concentration at which relaxation activity was exhibited; for IC50: read-out: concentration required for suppressing 50% of the contraction of an isolated myometrium caused by oxytocin (IC50)
Procedure: (§3) Effect on an Isolated Rat Myometrium Preparation
(§4) After blowing the cranium of a female virgin Wistar rat, uterus was extracted. The preparation was suspended in a Magnus tube filled with a nutrient solution (Tyrode solution) which was maintained at 36°±1° C. and saturated with a mixed gas of 95% O2 and 5% CO2. Contractile tension was measured via an isotonic transducer and recorded on a polygraph. When the spotaneous movement was stabilized, oxytocin (2×10^-2 U/ml) was administered and either (±)-ritodrine hydrochloride, (+)-ritodrine hydrochloride or (-)-ritodrine hydrochloride (10^-7 -10^-4 M) was applied to the Magnus tube to observe the variation of the contractile tension. Suppresive effect on the oxytocin-contracted uterus was expressed by the intensity of activity of (±)-ritodrine hydrochloride, (+)-ritodrine hydrochloride or (-)-ritodrine hydrochloride based on 100% of the contraction by oxytocin.

[4] = test system: guinea pig tracheal smooth muscle; assay: Effect on an isolated preparation of tracheal muscle in guinea pig (relaxation); parameters: species or system Hartley guinea pig; conditions: for relaxation response of tracheal muscle: 10^-8 -10-4M; for IC50: Cavia porcellus, read-out: concentration required for relaxing 50% of the maximum relaxation effect (IC50); for sequence of intensities of relaxation activity: decreasing sequence
Procedure: (§5) Effect on an Isolated Preparation of Tracheal Muscle in Guinea Pig
After Hartley guinea pigs having body weight of 430-510 g, were anesthesized with ether, tracheae were excised to make chain preparation according to the method of Akcasu (A. Akcasu, Arch. Int. Pharmacodyn., 1959, 122, 201). The preparations were suspended in a Magnus tube filled with an air-saturated nutrient solution (Tyrode solution) maintained at 37°±1° C. Contractile tension was measured via an isotonic transducer and recorded on a polygraph. Either (±)-ritodrine hydrochloride, (+)-ritodrine hydrochloride or (-)-ritodrine hydrochloride was cumulatively applied so as the concentration in the Magnus tube to be 10^-8 -10-4M.

[5] = test system: guinea pig; assay: Effect on vascular permeability (Evans blue dye infiltration, skin); type: in vivo, Hartley guinea pig
Procedure: Effect on Vascular Permeability
Three Hartley guinea pigs were employed. (±)-Ritodrine hydrochloride, (+)-ritodrine hydrochloride or (-) -ritodrine hydrochloride were administered intracutaneously at a dose of 10^-2 -10^-5 g/ml into the shaved rear part of the guinea pigs. Immediately after the administration, 1 ml of a 1% Evans blue solution was administered intravenously. After 30 minutes, the animals were slaughtered by exsanguination under anesthetization with excessive amount of pentobarbital sodium. The skin was peeled to observe from the internal side of the skin the extent of dye infiltration at the site where the test material was administered. The area with dye having a size ([longer diameter+shorter diameter]/2) of 5 mm or more was judged positive.

[6] = test system: uterus in situ; assay: Effect on uterine movement in situ (oxytocin-facilitated, pregnant rat); type: in vivo, pregnant Wistar rat; conditions: for ED50 / minimal effective dose: Rattus norvegicus, iv; for ED50: read-out: concentration (dose) required for suppressing 50% of the increase of the uterus due to oxytocin; for minimal effective dose: read-out: dose at which suppressing effect on uterine movement was exhibited; for concentration dependence of suppressing effect: i.v., 0.05-15 mg/kg
Text: Effect on Uterine Movement in Situ
After a pregnant Wistar rat was anesthesized with urethane-α-chloralose, the abdominal part was incised along the median line and a polyethylene cylinder was inserted. The center of the uterine horn was suspended with a suture, and the uterine movement was isotonically recorded via an isotonic transducer. When the spontaneous movement of the uterus was stabilized, 50 mU/kg/min of oxytocin was infused intravenously to facilitate the movement. When the response due to oxytocin became constant, either (±)-ritodrine hydrochloride, (+)-ritodrine hydrochloride or (-)-ritodrine hydrochloride (0.05-15 mg/kg) was administered intravenously to observe the variation of tension and frequency and amplitude of the spontaneous movement. The suppressing effect of the uterine movement on respective parameters was expressed as the intensity of the activity by either (±)-ritodrine hydrochloride, (+)-ritodrine hydrochloride or (-)-ritodrine hydrochloride based on the state facilitated by oxytocin as 100%. The variations of the tension, and the frequency and amplitude of the spontaneous movement are shown in Tables 2, 3 and 4, respectively. […] In either parameter, the (-)-isomer was effective in a concentration of 1/2-1/3 to the (±)-isomer. The (+)-isomer was effective at a dose of 1.5 mg/kg or more.

[7] = test system: smooth muscle (myometrium and tracheal muscle); assay: Smooth muscle relaxation activity, myometrium and tracheal muscle taken together; parameters: species or system rat, guinea pig; conditions: from the activities on myometrium and tracheal muscle
Procedure: as §3, §4, §5
After Hartley guinea pigs having body weight of 430-510 g, were anesthesized with ether, tracheae were excised to make chain preparation according to the method of Akcasu (A. Akcasu, Arch. Int. Pharmacodyn., 1959, 122, 201). […] Contractile tension was measured via an isotonic transducer and recorded on a polygraph. […]

[8] = cited from earlier work
[9] = acute toxicity, range stated for all three types, read-out: 50% lethal dose (LD50)
[10] = mice, confidence limits given, read-out: LD50 (Confidence limit)
[11] = Rattus norvegicus, oxytocin 2×10^-2 U/ml, hydrochlorides applied, Tyrode solution 36°C
[12] = oxytocin-contracted isolated rat myometrium
[13] = hydrochlorides, cumulative application, Tyrode solution 37°C
[14] = oxytocin 50 mU/kg/min i.v. infusion
[15] = tension, frequency and amplitude of spontaneous movement

Structure (SMILES) | LD50 [1, 9] [mg/kg] | LD50 [1, 10] [mg/kg] | mortality at 50 mg/kg ([2]; i.v., dead/total) | mortality at 60 mg/kg ([2]; i.v., dead/total) | mortality at 70 mg/kg ([2]; i.v., dead/total) | mortality at 80 mg/kg ([2]; i.v., dead/total) | mortality at 90 mg/kg ([2]; i.v., dead/total) | concentration dependence of relaxation activity [3] | intensity of activity relative to (±)-ritodrine, by IC50 on isolated myometrium [3] | relaxation response of tracheal muscle [4] | sequence of intensities of relaxation activity [4] | relaxation intensity relative to (±)-ritodrine, by IC50 on isolated tracheal muscle [4] | concentration dependence of suppressing effect [6] | sequence of safeties in developing the same level of relaxation effect on smooth muscle ([2]; mouse, in vivo) | IC50 [3, 11] [µM] | minimal effective concentration [3, 12] [µM] | IC50 [4, 13] [µM] | vascular permeability, positive at 0.001% ([5]; guinea pig) | vascular permeability, positive at 0.01% ([5]; guinea pig) | vascular permeability, positive at 0.1% ([5]; guinea pig) | also measured
C[C@H](NCCc1ccc(O)cc1)[C@H](O)c1ccc(O)cc1.Cl [(-)-isomer, (1R,2S)-2-(4-Hydroxyphenethylamino)-1-(4-hydroxyphenyl)-1-propanol hydrochloride] | 50 to 100 | 64 | 1/5 | 3/5 | 3/5 | 3/5 | 5/5 | increased depending on the concentration | about 2.6 times | relaxation response depending on concentration | (-)-isomer>(±)-isomer>>(+)-isomer | about 2.3 times | increased depending on the concentration |  |  |  |  |  |  |  | mortality at 40 mg/kg ([2]; i.v., 40 mg/kg, dead/total): 0/5; sequence of safeties in developing the same level of relaxation effect on smooth muscle ([2]; ratio of smooth muscle relaxation to lethal toxicity, decreasing sequence): (-)-type>(±)-type>>(+)-type; minimal effective concentration ([3]; Rattus norvegicus): 0.1 µM; IC50 ([3]; Rattus norvegicus): 1.35 µM; IC50 [4]: 0.0597 µM; vascular permeability, positive at 0.001% ([5]; intracutaneous, 0.001%, positive = dye area 5 mm or more, positive/total): 0/3; vascular permeability, positive at 0.01% ([5]; intracutaneous, 0.01%, positive = dye area 5 mm or more, positive/total): 1/3; vascular permeability, positive at 0.1% ([5]; intracutaneous, 0.1%, positive = dye area 5 mm or more, positive/total): 2/3; vascular permeability, positive at 1% ([5]; intracutaneous, 1%, positive = dye area 5 mm or more, positive/total): 3/3; ED50 [6]: 0.059 mg/kg; minimal effective dose [6]: ≥ 0.05 mg/kg; smooth muscle relaxation activity relative to the (±)-type [7]: 2-3 times
C[C@H](NCCc1ccc(O)cc1)[C@H](O)c1ccc(O)cc1 (relative stereo) [(±)-isomer, (±)-erythro-1-(p-hydroxyphenyl)-2-[2-(p-hydroxyphenyl)ethylamino]-1-propanol] | 50 to 100 | 83 | 0/5 | 0/5 | 1/5 | 2/5 | 4/5 | increased depending on the concentration |  | relaxation response depending on concentration | (-)-isomer>(±)-isomer>>(+)-isomer |  | increased depending on the concentration | (-)-type>(±)-type>>(+)-type | 3.53 | 0.1 | 0.136 | 0/3 | 0/3 | 3/3 | mortality at 100 mg/kg ([2]; i.v., 100 mg/kg, dead/total): 4/5; vascular permeability, positive at 1% ([5]; guinea pig): 3/3; ED50 [6, 14]: 0.106 mg/kg; minimal effective dose [6, 15]: ≥ 0.05 mg/kg; side effects ([8]; background): increase in heart rate; effectiveness in preventing premature birth / suppressing uterine contraction ([8]; known from Japanese Patent Publications): effective in preventing premature birth owing to its excellent activity for suppressing uterine contraction
C[C@@H](NCCc1ccc(O)cc1)[C@@H](O)c1ccc(O)cc1 [(+)-isomer] | 50 to 100 | 70 | 0/5 | 1/5 | 2/5 | 4/5 | 5/5 |  | 1/15 | relaxation response depending on concentration | (-)-isomer>(±)-isomer>>(+)-isomer | about 1/40 |  | (-)-type>(±)-type>>(+)-type | 54.6 | ≥ 10 | 5.61 | 0/3 | 1/3 | 3/3 | ED50 [6, 14]: 3.61 mg/kg; minimal effective dose [6, 15]: ≥ 1.5 mg/kg
